Patent publication US12662707B2, “MYC amplification drives resistance to pan-RAS inhibitors in pancreatic cancer” (The Trustees of Columbia University in the City of New York, priority 2024, dated 2026)

Columns and labels:
[1] = system: RAS/MAPK pathway (pERK) in murine PDAC cell lines; test: Western blot of pERK, murine PDAC cell lines; type: cell-based; settings: 1-100 nM, 2 hours
Method: Cells were seeded at 7.5×10^5-4×10^6 cells per well in 6-well plates or 100 mm dishes in growth medium. After overnight incubation, indicated compound (RMC-7977, IAG933 or DMSO (0.1% v/v)) were added and incubated for the indicated time points. Cells were washed twice with ice-cold PBS and lysed with NP-40 lysis buffer (Thermo Fisher Scientific, J60766), MSD Tris Lysis Buffer (MSD, R60TX-2), RIPA buffer (50 mM TRIS-HCl, pH 7.5, 150 mM NaCl, 1% NP-40, 0.5% sodium deoxycholate, 0.1% SDS) or a lysis buffer containing 1% Triton X-100, 20 mM Tris-HCl, 150 mM NaCl, and 1 mM EDTA. All lysis buffers were supplemented with protease and phosphatase inhibitors. Lysates were scraped and collected before centrifugation at 21,000×g for 10 minutes at 4° C. The protein-containing supernatants were quantified by BCA assay (Pierce, 23225) and equal quantities of protein were denatured with LDS and reducing agent at 95° C. Samples were resolved on 12% or 4-12% Bis-Tris polyacrylamide gels, then transferred to a nitrocellulose or PVDF membrane using the iBlot 2.0 system or wet transfer. Membranes were blocked in Intercept TBS buffer (LiCor, 927-60001) or 3-5% milk before probing with primary antibodies overnight at 4° C. Secondary antibodies were added as appropriate, and the membranes were imaged on a LiCor Odyssey imager. […]

[2] = system: RAS/MAPK pathway (pERK, pAKT, pS6, c-PARP) in human PDAC cell lines; test: Western blot of RAS pathway signaling, human PDAC cell lines; type: cell-based
Method: Cells were seeded at 7.5×10^5-4×10^6 cells per well in 6-well plates or 100 mm dishes in growth medium. After overnight incubation, indicated compound (RMC-7977, IAG933 or DMSO (0.1% v/v)) were added and incubated for the indicated time points. Cells were washed twice with ice-cold PBS and lysed with NP-40 lysis buffer (Thermo Fisher Scientific, J60766), MSD Tris Lysis Buffer (MSD, R60TX-2), RIPA buffer (50 mM TRIS-HCl, pH 7.5, 150 mM NaCl, 1% NP-40, 0.5% sodium deoxycholate, 0.1% SDS) or a lysis buffer containing 1% Triton X-100, 20 mM Tris-HCl, 150 mM NaCl, and 1 mM EDTA. All lysis buffers were supplemented with protease and phosphatase inhibitors. Lysates were scraped and collected before centrifugation at 21,000×g for 10 minutes at 4° C. The protein-containing supernatants were quantified by BCA assay (Pierce, 23225) and equal quantities of protein were denatured with LDS and reducing agent at 95° C. Samples were resolved on 12% or 4-12% Bis-Tris polyacrylamide gels, then transferred to a nitrocellulose or PVDF membrane using the iBlot 2.0 system or wet transfer. Membranes were blocked in Intercept TBS buffer (LiCor, 927-60001) or 3-5% milk before probing with primary antibodies overnight at 4° C. Secondary antibodies were added as appropriate, and the membranes were imaged on a LiCor Odyssey imager. Alternatively, membranes were incubated with HRP-linked secondary antibodies and developed with Clarity or ClarityMax chemiluminescent substrates using a ChemiDoc XRS+ or ChemiDoc™ MP imager (Bio-Rad).

[3] = system: autochthonous KPC pancreatic tumors; test: One-week study in KPC mice; type: in vivo, mouse; settings: 50 mg/kg q.o.d.
Method: Tumor formation in KPC mice was monitored by bi-weekly palpation. […] Treatments were performed every other day via oral gavage for 1 week. […] Following two consecutive ultrasounds, RMC-7977-treated animals were sacrificed either 4 (n=7) or 24 hours (n=4) after last dose and Vehicle-treated animals were sacrificed between 4-24 hours post last dose. Tissue was harvested and preserved as previously described (See Xenograft studies section). Additional group of KPC mice was also treated with a single dose of RMC-7977 (n=10) or Vehicle (n=3) and tissues were harvested at 4 or 24 hours post dose as previously described.

[4] = system: autochthonous KPCY pancreatic tumors; test: Short-term study in KPCY mice; type: in vivo, mouse; settings: daily 25 mg/kg, two weeks
Method: Animals were randomized into groups and treated with Vehicle (n=6) or RMC-7977 (25 mg/kg; n=8). Treatments were performed every day via oral gavage for 15 days and ultrasounds were performed on day 8 and 15. Animals were sacrificed after last dose and tissue was collected and preserved as previously described (See Xenograft studies section).

For `CCn1c(-c2cc(N3CCN(C4CC4)CC3)cnc2[C@H](C)OC)c2c3cc(ccc31)-c1csc(n1)C[C@H](NC(=O)[C@H]1[C@@H]3COC[C@@H]31)C(=O)N1CCC[C@H](N1)C(=O)OCC(C)(C)C2` [RMC-7977], the “phosphorylation of ERK1/2 (pERK)” value [1] was “reduced phosphorylation”, the “phosphorylation of ERK1/2 (pERK)” value ([2]; human PDAC cell lines, 1-100 nM) was “reduced phosphorylation” and the “inhibition of PI3K effector signaling (pAKT, pS6S235/S236)” value ([2]; human cell lines) was “more variable inhibition”. For the same compound, the “duration of inhibition of pERK” value ([2]; human cell lines, 100 nM) was 48 hours, the “apoptotic marker cleaved PARP (c-PARP)” value ([2]; human cell lines, later timepoints) was “induction” and the “impact on animal weight” value [3] was “little impact”. For the same compound, the tumor response ([3]; KPC, 129S4/SvJae) was “regressions in most tumors”, the tumor response ([4]; KPCY, C57Bl/6) was “regressions in most tumors” and the “impact on animal weight” value [4] was “little impact”.
